According to patent publication US20150010928A1, “MEANS AND METHODS FOR ASSESSING AN ENDOCRINE DISEASE OR DISORDER” (priority 2012, published 2015):
Marks after values point to notes of the source that are not given here.

Tested on: male rats
Assay: Plasma metabolite profiling (GC-MS, LC-MS, SPE-LC-MS) in male rats dosed once daily over 28 days (OECD 407)
Type: in vivo, rat
Parameters: key to erythro-Sphingoside (d18:1) / Tricosanoic acid (C23:0) / beta-Sitosterol / Tryptophan: ratio of treated group mean to untreated control group mean
Settings: for Glucose, ratio versus control / Lysophosphatidylcholine (C20:4), ratio versus control / Threonic acid, ratio versus control: male rats, plasma, low dose
Experimental: Each dose group in the studies consisted of five rats per sex. Additional groups of each 5 male and female animals served as controls. […] All animals of the animal population were kept under the same constant temperature (20-24±3° C.) and the same constant humidity (30-70%). The animals of the animal population were fed ad libitum. The food to be used was essentially free of chemical or microbial contaminants. Drinking water was also offered ad libitum. Accordingly, the water was free of chemical and microbial contaminants as laid down in the European Drinking Water Directive 98/83/EG. The illumination period was 12 hours light followed by 12 hours darkness (12 hours light, from 6:00 to 18:00, and 12 hours darkness, from 18:00 to 6:00). […] The test substances (compounds) in the Tables 1 to 17 below were dosed and administered as described in the Table 18.
In the morning of day 7, 14, and 28, blood was taken from the retroorbital venous plexus from fasted anaesthetized animals. From each animal, 1 ml of blood was collected with EDTA as anticoagulant. The samples were centrifuged for generation of plasma. All plasma samples were covered with a N2 atmosphere and then stored at −80° C. until analysis.
For mass spectrometry-based metabolite profiling analyses plasma samples were extracted and a polar and a non-polar (lipid) fraction was obtained. For GC-MS analysis, the non-polar fraction was treated with methanol under acidic conditions to yield the fatty acid methyl esters. Both fractions were further derivatised with O-methyl-hydroxyamine hydrochloride and pyridine to convert Oxogroups to O-methyloximes and subsequently with a silylating agent before analysis. In LC-MS analysis, both fractions were reconstituted in appropriate solvent mixtures. HPLC was performed by gradient elution on reversed phase separation columns. Mass spectrometric detection which allows target and high sensitivity MRM (Multiple Reaction Monitoring) profiling in parallel to a full screen analysis was applied as described in WO2003073464.
Steroids and their metabolites were measured by online SPE-LC-MS (Solid phase extraction-LC-MS).
Following comprehensive analytical validation steps, the data for each analyte were normalized against data from pool samples. These samples were run in parallel through the whole process to account for process variability. The significance of treatment group values specific for sex, treatmentduration and metabolite was determined by comparing means of the treated groups to the means of the respective untreated control groups using WELCH-test and quantified with treatment ratios versus control and p-values.
The identification of the most important biomarkers per toxicity pattern was done by a ranking of the analytes in the tables below. Therefore the metabolic changes in reference treatments of a given pattern (shown in the table) were compared with changes of the same metabolite in other unrelated treatments. […] The maximum absolute value of the respective TVALUE was taken to indicate the most important metabolite for the pattern.

CC(C)C(=O)Nc1ccc([N+](=O)[O-])c(C(F)(F)F)c1 [Flutamide]
3-O-Methylsphingosine (d18:1) (m7, high dose, Table 10a): 1.27 *
Nervonic acid (C24:cis[15]1) (m7, high dose, Table 10a): 1.39 *
Stearic acid (C18:0) (m7, high dose, Table 10a): 1.15 *
alpha-Tocopherol (m7, high dose, Table 10a): 1.55 *
threo-Sphingosine (d18:1) (m7, high dose, Table 10a): 1.39 *
Thyroxine (T4) (m7, high dose, Table 10b): 0.46 *
trans-4-Hydroxyproline (m7, high dose, Table 10b): 0.79 *
3-Methoxytyrosine (m7, high dose, Table 11a): 1.97 *
3-O-Methylsphingosine (d18:1) (m7, high dose, Table 11a): 1.27 *
Androstenedione (m7, high dose, Table 11a): 19.42 *
Behenic acid (C22:0) (m7, high dose, Table 11a): 1.89 *
Dodecanol (m7, high dose, Table 11a): 1.2 *
Eicosanoic acid (C20:0) (m7, high dose, Table 11a): 2.11 *
Galactose, lipid fraction (m7, high dose, Table 11a): 1.44 *
Glycerol phosphate, lipid fraction (m7, high dose, Table 11a): 1.57 *
Nervonic acid (C24:cis[15]1) (m7, high dose, Table 11a): 1.39 *
Noradrenaline (Norepinephrine) (m7, high dose, Table 11a): 1.36 *
Phosphatidylcholine (C18:0, C18:2) (m7, high dose, Table 11a): 1.38 *
Phytosphingosine (m7, high dose, Table 11a): 2.29 *
Stearic acid (C18:0) (m7, high dose, Table 11a): 1.15 *
Testosterone (m7, high dose, Table 11a): 10.33 *
Tryptophan (m7, high dose, Table 11a): 1.22 *
dihomo-gamma-Linolenic acid (C20:cis[8,11,14]3) (m7, high dose, Table 11a): 1.55 *
myo-Inositol-2-phosphate, lipid fraction (m7, high dose, Table 11a): 2.52 *
threo-Sphingosine (d18:1) (m7, high dose, Table 11a): 1.39 *
3-Hydroxybutyrate (m7, high dose, Table 11b): 0.53 *
4-Hydroxy-3-methoxyphenylglycol (HMPG) (m7, high dose, Table 11b): 0.67 *
18-Hydroxy-11-deoxycorticosterone (m7, high dose, Table 11b): 0.75^
21-Hydroxyprogesterone (11-Deoxycorticosterone) (m7, high dose, Table 11b): 0.65^
Citrate (m7, high dose, Table 11b): 0.74 *
Coenzyme Q9 (m7, high dose, Table 11b): 0.73 *
Coenzyme Q10 (m7, high dose, Table 11b): 0.58 *
Corticosterone (m7, high dose, Table 11b): 0.83^
Metanephrine (m7, high dose, Table 11b): 0.5 *
Palmitoleic acid (C16:cis[9]1) (m7, high dose, Table 11b): 0.77 *
Progesterone (m7, high dose, Table 11b): 0.64^
trans-4-Hydroxyproline (m7, high dose, Table 11b): 0.79 *
3-O-Methylsphingosine (d18:1) (m14, high dose, Table 10a): 0.78
5-O-Methylsphingosine (d18:1) (m14, high dose, Table 10a): 0.81
Cysteine (m14, high dose, Table 10a): 0.96
Lignoceric acid (C24:0) (m14, high dose, Table 10a): 0.9
Nervonic acid (C24:cis[15]1) (m14, high dose, Table 10a): 0.93
Oleic acid (C18:cis[9]1) (m14, high dose, Table 10a): 1.1
Stearic acid (C18:0) (m14, high dose, Table 10a): 1.01
alpha-Tocopherol (m14, high dose, Table 10a): 1.24
erythro-Sphingoside (d18:1) (m14, high dose, Table 10a): 0.79
threo-Sphingosine (d18:1) (m14, high dose, Table 10a): 0.95
Oleic acid (C18:cis[9]1) (m14, high dose, Table 10b): 1.1
Phosphatidylcholine (C16:0, C16:0) (m14, high dose, Table 10b): 0.7 *
Thyroxine (T4) (m14, high dose, Table 10b): 0.57^
trans-4-Hydroxyproline (m14, high dose, Table 10b): 0.89 *
3-Methoxytyrosine (m14, high dose, Table 11a): 1.47 *
3-O-Methylsphingosine (d18:1) (m14, high dose, Table 11a): 0.78
5-O-Methylsphingosine (d18:1) (m14, high dose, Table 11a): 0.81
Androstenedione (m14, high dose, Table 11a): 46.48 *
Arachidonic acid (C20:cis[5,8,11,14]4) (m14, high dose, Table 11a): 0.99
Cholesterol (m14, high dose, Table 11a): 1.07
Cysteine (m14, high dose, Table 11a): 0.96
Eicosanoic acid (C20:0) (m14, high dose, Table 11a): 1.84 *
Galactose, lipid fraction (m14, high dose, Table 11a): 1.07
Glycerol phosphate, lipid fraction (m14, high dose, Table 11a): 1.18 *
Indole-3-lactic acid (m14, high dose, Table 11a): 1.06
Lignoceric acid (C24:0) (m14, high dose, Table 11a): 0.9
Nervonic acid (C24:cis[15]1) (m14, high dose, Table 11a): 0.93
Noradrenaline (Norepinephrine) (m14, high dose, Table 11a): 1.85 *
Phosphate, lipid fraction (m14, high dose, Table 11a): 1.08
Phosphatidylcholine (C18:0, C18:2) (m14, high dose, Table 11a): 1.17
Phosphatidylcholine (C18:0, C20:3) (m14, high dose, Table 11a): 1.01
Phosphatidylcholine (C18:0, C22:6) (m14, high dose, Table 11a): 0.96
Phosphatidylcholine (C18:0,C18:1) (m14, high dose, Table 11a): 1.15
Stearic acid (C18:0) (m14, high dose, Table 11a): 1.01
Testosterone (m14, high dose, Table 11a): 16.89 *
Tricosanoic acid (C23:0) (m14, high dose, Table 11a): 0.9
Tryptophan (m14, high dose, Table 11a): 1.15
alpha-Tocopherol (m14, high dose, Table 11a): 1.16
beta-Sitosterol (m14, high dose, Table 11a): 0.91
dihomo-gamma-Linolenic acid (C20:cis[8,11,14]3) (m14, high dose, Table 11a): 1.46 *
erythro-Sphingosine (d18:1) (m14, high dose, Table 11a): 0.79
threo-Sphingosine (d18:1) (m14, high dose, Table 11a): 0.95
3-Hydroxybutyrate (m14, high dose, Table 11b): 0.72 *
4-Hydroxy-3-methoxyphenylglycol (HMPG) (m14, high dose, Table 11b): 0.7 *
18-Hydroxy-11-deoxycorticosterone (m14, high dose, Table 11b): 0.48 *
21-Hydroxyprogesterone (11-Deoxycorticosterone) (m14, high dose, Table 11b): 0.31 *
Citrate (m14, high dose, Table 11b): 0.88 *
Coenzyme Q10 (m14, high dose, Table 11b): 0.43 *
Corticosterone (m14, high dose, Table 11b): 0.38 *
Metanephrine (m14, high dose, Table 11b): 0.61 *
Palmitoleic acid (C16:cis[9]1) (m14, high dose, Table 11b): 0.68 *
Phosphatidylcholine (C16:0, C16:0) (m14, high dose, Table 11b): 0.7 *
Progesterone (m14, high dose, Table 11b): 0.33 *
trans-4-Hydroxyproline (m14, high dose, Table 11b): 0.89 *
3-O-Methylsphingosine (d18:1) (m28, high dose, Table 10a): 1.52^
Cysteine (m28, high dose, Table 10a): 1.41 *
Lignoceric acid (C24:0) (m28, high dose, Table 10a): 1.3 *
Nervonic acid (C24:cis[15]1) (m28, high dose, Table 10a): 1.46 *
alpha-Tocopherol (m28, high dose, Table 10a): 1.54 *
threo-Sphingosine (d18:1) (m28, high dose, Table 10a): 1.38 *
Phosphatidylcholine (C16:0, C16:0) (m28, high dose, Table 10b): 0.81 *
Thyroxine (T4) (m28, high dose, Table 10b): 0.72^
trans-4-Hydroxyproline (m28, high dose, Table 10b): 0.72 *
3-Methoxytyrosine (m28, high dose, Table 11a): 1.55 *
3-O-Methylsphingosine (d18:1) (m28, high dose, Table 11a): 1.52 *
Androstenedione (m28, high dose, Table 11a): 18.79 *
Behenic acid (C22:0) (m28, high dose, Table 11a): 1.34 *
Cholesterol (m28, high dose, Table 11a): 1.22 *
Cysteine (m28, high dose, Table 11a): 1.41 *
Eicosanoic acid (C20:0) (m28, high dose, Table 11a): 1.93 *
Histidine (m28, high dose, Table 11a): 0.98^
Lignoceric acid (C24:0) (m28, high dose, Table 11a): 1.3 *
Nervonic acid (C24:cis[15]1) (m28, high dose, Table 11a): 1.46 *
Noradrenaline (Norepinephrine) (m28, high dose, Table 11a): 0.93^
Phosphatidylcholine (C18:0, C20:3) (m28, high dose, Table 11a): 0.94^
Phosphatidylcholine (C18:0, C22:6) (m28, high dose, Table 11a): 1.34 *
Testosterone (m28, high dose, Table 11a): 8.45 *
Threonine (m28, high dose, Table 11a): 1.22 *
alpha-Tocopherol (m28, high dose, Table 11a): 1.19^
beta-Sitosterol (m28, high dose, Table 11a): 0.89^
dihomo-gamma-Linolenic acid (C20:cis[8,11,14]3) (m28, high dose, Table 11a): 2.58 *
myo-Inositol-2-phosphate, lipid fraction (m28, high dose, Table 11a): 1.44 *
threo-Sphingosine (d18:1) (m28, high dose, Table 11a): 1.38 *
4-Hydroxy-3-methoxyphenylglycol (HMPG) (m28, high dose, Table 11b): 0.8 *
18-Hydroxy-11-deoxycorticosterone (m28, high dose, Table 11b): 0.07 *
21-Hydroxyprogesterone (11-Deoxycorticosterone) (m28, high dose, Table 11b): 0.26 *
Citrate (m28, high dose, Table 11b): 0.9
Coenzyme Q9 (m28, high dose, Table 11b): 0.95^
Coenzyme Q10 (m28, high dose, Table 11b): 0.4 *
Corticosterone (m28, high dose, Table 11b): 0.07 *
Metanephrine (m28, high dose, Table 11b): 0.48 *
Palmitoleic acid (C16:cis[9]1) (m28, high dose, Table 11b): 0.6 *
Phosphatidylcholine (C16:0, C16:0) (m28, high dose, Table 11b): 0.81 *
Progesterone (m28, high dose, Table 11b): 0.25 *
trans-4-Hydroxyproline (m28, high dose, Table 11b): 0.72 *
3-Hydroxybutyrate (rat, in vivo): 1.08^
Behenic acid (C22:0) (rat, in vivo): 1.12 *
Cholesterol (rat, in vivo): 1.43 *
Coenzyme Q9 (rat, in vivo): 1.04^
Cysteine (rat, in vivo): 1.21^
Galactose, lipid fraction (rat, in vivo): 1.23 *
Glycerol phosphate, lipid fraction (rat, in vivo): 1.28 *
Lignoceric acid (C24:0) (rat, in vivo): 1.43 *
Phosphatidylcholine (C16:0, C16:0) (rat, in vivo): 1.12^
Phosphatidylcholine (C18:0, C18:2) (rat, in vivo): 1.13^
Phosphatidylcholine (C18:0, C20:3) (rat, in vivo): 1.14 *
Phosphatidylcholine (C18:0, C22:6) (rat, in vivo): 1.01^
Stearic acid (C18:0) (rat, in vivo): 1.29 *
Tryptophan (rat, in vivo): 1.08 *
alpha-Tocopherol (rat, in vivo): 1.43 *
beta-Sitosterol (rat, in vivo): 1.24 *
myo-Inositol-2-phosphate, lipid fraction (rat, in vivo): 1.06 *

C[C@]12CCC(=O)C(O)=C1CC[C@@H]1[C@@H]2CC[C@]2(C)C(=O)CC[C@@H]12 [Formestane]
Glucose, ratio versus control (day 7): 0.8 *
Lysophosphatidylcholine (C20:4), ratio versus control (day 7): 0.99 *
Threonic acid, ratio versus control (day 7): 1.27 *
Glucose, ratio versus control (day 14): 0.89 *
Lysophosphatidylcholine (C20:4), ratio versus control (day 14): 0.97 *
Threonic acid, ratio versus control (day 14): 1.24 *
Glucose, ratio versus control (day 28): 0.9 *
Lysophosphatidylcholine (C20:4), ratio versus control (day 28): 0.96 *
Threonic acid, ratio versus control (day 28): 1.44 *
